# Laboratory results from US20240182521A1, “CELL-PENETRATING PEPTIDE VARIANT AND USE THEREOF” (REGEN INNOPHARM INC., priority 2021, published 2024).
# What was measured:
# [1] = tested on: diabetic mouse model (db/db); experiment: Diabetic wound healing by combined treatment with EGF; type: in vivo; conditions: db/db mice, 8 mm punch wound
# Description: The diabetic wound healing effect by combined treatment with LPX peptide and EGF was confirmed.
# NIH3T3 cells [2] = experiment: Intracellular stability, cell proliferation and migration of RNA binding / zinc finger region variants; type: cell-based, mouse
# Description: The protein stability of variants with mutations in the RNA binding region and the zinc finger region was confirmed. Specifically, LPX103 variants with mutated amino acid residues for RNA binding during cell migration were treated with NIH3T3 cells for 1 day, respectively, and based on the molecular modeling program, the intracellular stabilization effect of each peptide was analyzed after 72 hours. The mutation energy of each amino acid residue was confirmed, and variants that may cause<−1 Kcal/mol due to substitution were selected as potential mutations that may increase the stability and activity of the peptide (FIGS. 23 and 24). The effects of the selected variants on cell proliferation and cell migration were confirmed in NIH3T3 cells (FIG. 25), and as a result, mutations in the RNA binding region and the zinc finger region that improved or decreased the stability of the peptide in the cell were confirmed (FIG. 26).
# NIH3T3 cells [3] = experiment: Cell migration effects, Table 1; type: cell-based, mouse; conditions: vehicle = 1
# Description: Various variants of the LPX peptides were prepared as illustrated in FIG. 18. Specifically, various constructs (26 constructs including 101) were prepared by adding various mutations (substitution of a CPP region, amino acid mutation of an RNA binding portion and a zinc finger structure, and addition of his-tag) to the structure of LPX101 in FIG. 19 (FIG. 20).
# [4] = tested on: diabetic human epidermal keratinocyte (DHEK); experiment: Cell migration across a scratched boundary; type: cell-based; conditions: DHEK cells; at lower concentrations than LPX101
# Description: An effect of LPX101 peptide on cell growth was confirmed in a NIH3T3 cell line, and the effects of LPX101, LPX102, and LPX103 peptides on cell migration were confirmed in diabetic human epidermal keratinocyte (DHEK) as a diabetic cell line. Specifically, mMSC or NIH3T3 cells were treated with the LPX101 peptide, incubated for 1 hour, and then washed. A % increase in cell growth by LPX treatment was confirmed by measuring the number of cells after 3 days of treatment and calculating a relative proliferation rate as % compared to a control group (n=3). Additionally, in order to confirm the cell migration effect, DHEK cells were treated with LPX101, LPX102, and LPX103 peptides, incubated for 1 hour, and then washed. Thereafter, the migration of cells across a scratched boundary was measured 72 hours after treatment. The number of cells that migrated across a scratch line was measured by image analysis using ImageJ.
# [5] = tested on: STZ-induced diabetic mouse model; experiment: Wound healing in STZ-induced diabetic mouse model; type: in vivo; conditions: 2 mg/ml (20 μl)
# Description: (§1) The wound healing effects of LPX101, LPX102, and LPX103 were confirmed in an STZ-induced diabetic mouse model. […] Thereafter, according to a schedule shown in FIG. 12A, PBS (negative control), EGF (positive control) 50 μg/ml, LPX101 2 mg/ml (20 μl), LPX102 and LPX103 (2 mg/ml (20 μl)) were treated, respectively, and then the effect of wound healing in a diabetes-induced mouse model was confirmed through imaging, re-epithelialization, and diabetes phenotypes (hyperglycemia and impaired glucose tolerance test (IPGTT)) (n=10 for each group, *; p<0.05). Additionally, to compare the regenerative activity of LPX peptides in a diabetic mouse model, wound healing kinetics measured by a % non-epithelialized area to an initial wound area (n=8 for each group), and quantification of re-epithelialization analyzed as % of a re-epithelialized area to the initial wound area were confirmed.
# [6] = tested on: NIH3T3 cell line and mouse mesenchymal stem cells (mMSCs); experiment: Cell penetrating effect (FACS, confocal microscopy) of FITC-attached peptides; type: cell-based; conditions: compared to LPX101 (2 μM)
# Description: A cell penetrating effect was confirmed in penetrating peptides LPX101 (SEQ ID NO: 11), LPX102 (SEQ ID NO: 12), and LPX103 (SEQ ID NO: 13) having three structures including a signal peptide, an RNA binding affinity residue, and an RNA binding residue (FIG. 1), and two zinc finger motifs. Specifically, in order to measure cell penetrating efficiency, respective peptides that may have been attached to the cell membrane surface were removed by applying a Heparin & Trypsin washing method used in a Keplan group [Kaplan I M, Wadia J S, Dowdy S F (2005) Cationic TAT peptide transduction domain enters cells by macropinocytosis. J Controlled release 102: 247-253] to a NIH3T3 cell line and mouse mesenchymal stem cells (mMSCs). […] Then, the cells were washed three times with PBS and detached with trypsin, and then FACS analysis was performed. In addition, whether each peptide actually existed in the nucleus or cytoplasm of the cell was confirmed by confocal microscopy after 18 hours of peptide treatment, and membrane binding was labeled with PKH.
# diabetic mice (db/db) = experiment: Histological evaluation of wound re-epithelialization (H/E, day 10); type: in vivo, mouse; conditions: day 10 after initial injury
# Description: In order to histologically evaluate wound re-epithelialization in diabetic mice by LPX peptides 101, 102 and 103, wound tissues from diabetic mice (db/db) treated by each LPX were H/E stained on day 10 after initial injury and confirmed under a microscope (50X and 100x).
# NIH3T3 cells [7] = experiment: Glycolysis, extracellular acidification rate (ECAR), Seahorse XF analyzer; type: cell-based, mouse
# Description: NIH3T3 cells were incubated in a glucose-free medium for 1 day and then sequentially treated with glucose, oligomycin, and 2-DG, and an extracellular acidification rate (ECAR) was measured as a measure of lactate production using a Seahorse extracellular flux (XF) analyzer and quantification and profile of ECAR were confirmed in cells treated with LPX peptide (Mean SEM n=3, *; p<0.05).
# [8] = tested on: diabetes model mice (db/db); experiment: Diabetic wound healing in diabetes model mice (db/db); type: in vivo, mouse; conditions: db/db mouse model
# Description: The skins of wild type (WT) mice and diabetes model mice (db/db) (n=14 each) were punched with an 8 mm diameter puncher and treated with LPX101 (2 mg/ml, 20 μl) or PBS daily for 14 days and subjected to wound dressing. The wound healing effect was confirmed by analyzing an initial wound area and a re-epithelialization area using ImageJ (mean SEM n=3, *; p<0.05). In addition, the wound healing effect in wounds treated with LPX101 was histologically evaluated. Specifically, diabetic mice (db/db) were stained with H/E or trichrome at 7 and 14 days after wound induction and then confirmed under a microscope, and re-epithelialization and granulation tissue were quantified using ImageJ (n=3, ***; p<0.001). In addition, the wounds of db/db mice were treated with LPX101, and the tissue epidermis after 14 days was histologically analyzed.
# as §1
# [9] = tested on: diabetic model mice (db/db); experiment: Blood vessel formation in diabetic wounds (histology, day 7); type: in vivo, mouse; conditions: once daily, day 7 after wounding
# Description: Since diabetic ulcers were hardly treated by insufficient vascular supply due to impaired angiogenesis and ischemic necrosis, it was confirmed whether the LPX peptide contributed to blood vessel formation in diabetic wound healing. Specifically, diabetic model mice (db/db) were wounded and then treated with LPX 103 or EGF once daily, and the recovery of angiogenesis was analyzed on day 7 after wounding, and in order to visualize the extravasation of red blood cells within the tissue, the wound and entrance (red dotted box) of each group were magnified and images were confirmed.
substance,measurement,setting,value
LPX103: cell-penetrating peptide consisting of amino acid sequence SEQ ID NO: 13 (GSERRPKGKSMQKRRSKGDRCYNCGGLDHHAKECKL; LPX103),diabetic wound healing effect in combination with EGF,[1],improved when treated in combination with EGF
same,stability and biological activity,NIH3T3 cells [2],high stability and biological activity
same,Effects on cell migration (3 expts),NIH3T3 cells [3]; 1 uM,1.3
same,Effects on cell migration (3 expts),NIH3T3 cells [3]; 5 uM,1.3
same,cell migration compared to LPX101,[4],promoted cell migration to a similar extent to LPX101
same,wound healing effect compared to LPX101,[5],better effects than LPX101
same,cell permeability compared to LPX101,[6],high cell permeability similar to LPX101
same,re-epithelialization of diabetic wounds (histology),diabetic mice (db/db),significantly improved re-epithelialization
same,"glucose metabolism (glycolysis), ECAR",NIH3T3 cells [7],promoted glucose metabolism (glycolysis)
same,diabetic wound healing effect (wound healing kinetics and re-epithelialization) compared to LPX101,[8],better diabetic wound healing effect than LPX101
same,capillary formation compared to EGF,[9],more mature capillary formation
same,hemorrhage (extravasation of RBC) compared to EGF,[9],less hemorrhage (extravasation of RBC)
